Patent publication US5569456A, “Biologically active rupununines” (priority 1994, dated 1996)

Experiments:
[1] = Solubility of crystalline rupununine in organic solvents; format: physicochemical; conditions: crystalline white solid
Procedure: (§1) Rupununine (100 mg.) was dissolved in the minimum volume of distilled acetone (2 ml). The solution was warmed gently, filtered and then left in the refrigerator overnight. This produced white needles which were recrystallized in acetone giving crystalline rupununine (45 mg.). Further crystalline samples were also obtained by the same treatment with acetone, of Fraction C.1 and C.2. The crystals were dried in a drying pistol under nitrogen, over phosphorus pentoxide at 60° C. overnight. […] The crystals melted between 214°-217° C., and were fairly stable, if kept under nitrogen at room temperature, even for prolonged periods.

[2] = Stability of rupununine crystals under nitrogen at room temperature; format: physicochemical; conditions: crystals kept under nitrogen at room temperature, prolonged periods
Procedure: as §1

solubility in chloroform ([1]; chloroform): fairly soluble
solubility in ethanol ([1]; ethanol): fairly soluble
solubility in ether ([1]; ether): only partially soluble
solubility in methanol ([1]; methanol): fairly soluble
stability [2]: fairly stable
Substance: rupununine
